Measurements published in PubChem BioAssay AID1963421 (Molecular Pharmacology Branch, DTP, NCI, 2024).
pIC50: −log10 of the molar value. Blank lines part the entries; values can stand above or below the compound they belong to.

Test system: 519858-162-T-J1-PDC complex spheroid growth, % test/control
Experiment: Anticancer human tumor 519858-162-T-J1-PDC patient-derived colon adenocarcinoma cell line growth inhibition [Asc]
Settings: for pIC50: curve of first compound; for viability, T/C: stronger effect = lower value
In short: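 Tumor cells were grown as multicellular spheroids with stromal HUVEC and mesenchymal stem cells and treated singly or in combination. Concentrations fell in half-log steps from the clinical Cmax, or from 10 microM where none was known.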
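Further: seven day drug exposure begun three days after spheroid seeding.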
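Wherever viability, T/C is given: 100% = DMSO vehicle wells and lower values mean less viable spheroid.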

pIC50 (second compound 0.00949 µM): 5.13
pIC50 (second compound 0.03 µM): < 5.00
pIC50 (second compound 0.0949 µM): < 5.00
pIC50 (second compound 0.3 µM): 5.04
pIC50 (second compound 0.949 µM): 5.34
pIC50 (second compound 3 µM): 5.55
SMILES: C=C(F)C(=O)N1CCN(c2nc(OCC3CCCN3C)nc3c2CCN(c2cccc4cccc(Cl)c24)C3)CC1CC#N (stereo unspecified) + CCN1C(C(=O)NC23CCC(C(=O)O)(CC2)CC3)C(c2cccc(Cl)c2F)C2(C(=O)Nc3cc(Cl)ccc32)C12CCCCC2
viability, T/C (second compound 0.00949 µM, first compound 0.0316 µM): 114%
viability, T/C (second compound 0.00949 µM, first compound 0.1 µM): 80.6%
viability, T/C (second compound 0.00949 µM, first compound 0.316 µM): 84.5%
viability, T/C (second compound 0.00949 µM, first compound 1 µM): 96.3%
viability, T/C (second compound 0.00949 µM, first compound 3.16 µM): 71.7%
viability, T/C (second compound 0.00949 µM, first compound 10 µM): 41.4%
viability, T/C (second compound 0.03 µM, first compound 0.0316 µM): 102%
viability, T/C (second compound 0.03 µM, first compound 0.1 µM): 84%
viability, T/C (second compound 0.03 µM, first compound 0.316 µM): 78.4%
viability, T/C (second compound 0.03 µM, first compound 1 µM): 84.3%
viability, T/C (second compound 0.03 µM, first compound 3.16 µM): 71.9%
viability, T/C (second compound 0.03 µM, first compound 10 µM): 52.5%
viability, T/C (second compound 0.0949 µM, first compound 0.0316 µM): 126%
viability, T/C (second compound 0.0949 µM, first compound 0.1 µM): 110%
viability, T/C (second compound 0.0949 µM, first compound 0.316 µM): 76.2%
viability, T/C (second compound 0.0949 µM, first compound 1 µM): 102%
viability, T/C (second compound 0.0949 µM, first compound 3.16 µM): 84.7%
viability, T/C (second compound 0.0949 µM, first compound 10 µM): 41.6%
viability, T/C (second compound 0.3 µM, first compound 0.0316 µM): 81%
viability, T/C (second compound 0.3 µM, first compound 0.1 µM): 73.8%
viability, T/C (second compound 0.3 µM, first compound 0.316 µM): 97.7%
viability, T/C (second compound 0.3 µM, first compound 1 µM): 90.5%
viability, T/C (second compound 0.3 µM, first compound 3.16 µM): 79.7%
viability, T/C (second compound 0.3 µM, first compound 10 µM): 47.2%
viability, T/C (second compound 0.949 µM, first compound 0.0316 µM): 95.5%
viability, T/C (second compound 0.949 µM, first compound 0.1 µM): 76.6%
viability, T/C (second compound 0.949 µM, first compound 0.316 µM): 96.7%
viability, T/C (second compound 0.949 µM, first compound 1 µM): 86.3%
viability, T/C (second compound 0.949 µM, first compound 3.16 µM): 58.1%
viability, T/C (second compound 0.949 µM, first compound 10 µM): 32.4%
viability, T/C (second compound 3 µM, first compound 0.0316 µM): 74.7%
viability, T/C (second compound 3 µM, first compound 0.1 µM): 81%
viability, T/C (second compound 3 µM, first compound 0.316 µM): 82.7%
viability, T/C (second compound 3 µM, first compound 1 µM): 70%
viability, T/C (second compound 3 µM, first compound 3.16 µM): 47.8%
viability, T/C (second compound 3 µM, first compound 10 µM): 26.2%

pIC50 (second compound 0.00316 µM): < 5.52
pIC50 (second compound 0.01 µM): < 5.52
pIC50 (second compound 0.0316 µM): < 5.52
pIC50 (second compound 0.1 µM): < 5.52
pIC50 (second compound 0.316 µM): < 5.52
pIC50 (second compound 1 µM): < 5.52
SMILES: CCN1C(C(=O)NC23CCC(C(=O)O)(CC2)CC3)C(c2cccc(Cl)c2F)C2(C(=O)Nc3cc(Cl)ccc32)C12CCCCC2 (stereo unspecified) + CNC(C)C(=O)NC1CN(S(=O)(=O)c2cccc(S(=O)(=O)N3CCC4CCC(C(=O)NC(c5ccccc5)c5ccccc5)N4C(=O)C(NC(=O)C(C)NC)C3)c2)CCC2CCC(C(=O)NC(c3ccccc3)c3ccccc3)N2C1=O
viability, T/C (second compound 0.00316 µM, first compound 0.00949 µM): 92%
viability, T/C (second compound 0.00316 µM, first compound 0.03 µM): 118%
viability, T/C (second compound 0.00316 µM, first compound 0.0949 µM): 111%
viability, T/C (second compound 0.00316 µM, first compound 0.3 µM): 83.8%
viability, T/C (second compound 0.00316 µM, first compound 0.949 µM): 108%
viability, T/C (second compound 0.00316 µM, first compound 3 µM): 65.8%
viability, T/C (second compound 0.01 µM, first compound 0.00949 µM): 101%
viability, T/C (second compound 0.01 µM, first compound 0.03 µM): 106%
viability, T/C (second compound 0.01 µM, first compound 0.0949 µM): 112%
viability, T/C (second compound 0.01 µM, first compound 0.3 µM): 80.1%
viability, T/C (second compound 0.01 µM, first compound 0.949 µM): 89.2%
viability, T/C (second compound 0.01 µM, first compound 3 µM): 82.6%
viability, T/C (second compound 0.0316 µM, first compound 0.00949 µM): 96.4%
viability, T/C (second compound 0.0316 µM, first compound 0.03 µM): 73.9%
viability, T/C (second compound 0.0316 µM, first compound 0.0949 µM): 122%
viability, T/C (second compound 0.0316 µM, first compound 0.3 µM): 94%
viability, T/C (second compound 0.0316 µM, first compound 0.949 µM): 83.5%
viability, T/C (second compound 0.0316 µM, first compound 3 µM): 82.1%
viability, T/C (second compound 0.1 µM, first compound 0.00949 µM): 94.7%
viability, T/C (second compound 0.1 µM, first compound 0.03 µM): 73.8%
viability, T/C (second compound 0.1 µM, first compound 0.0949 µM): 82.1%
viability, T/C (second compound 0.1 µM, first compound 0.3 µM): 93.2%
viability, T/C (second compound 0.1 µM, first compound 0.949 µM): 80.1%
viability, T/C (second compound 0.1 µM, first compound 3 µM): 89.6%
viability, T/C (second compound 0.316 µM, first compound 0.00949 µM): 96%
viability, T/C (second compound 0.316 µM, first compound 0.03 µM): 115%
viability, T/C (second compound 0.316 µM, first compound 0.0949 µM): 92.8%
viability, T/C (second compound 0.316 µM, first compound 0.3 µM): 79.6%
viability, T/C (second compound 0.316 µM, first compound 0.949 µM): 81.3%
viability, T/C (second compound 0.316 µM, first compound 3 µM): 105%
viability, T/C (second compound 1 µM, first compound 0.00949 µM): 78.9%
viability, T/C (second compound 1 µM, first compound 0.03 µM): 84.7%
viability, T/C (second compound 1 µM, first compound 0.0949 µM): 66.1%
viability, T/C (second compound 1 µM, first compound 0.3 µM): 112%
viability, T/C (second compound 1 µM, first compound 0.949 µM): 82.2%
viability, T/C (second compound 1 µM, first compound 3 µM): 83.1%

pIC50 (second compound 0.0316 µM): < 5.00
pIC50 (second compound 0.1 µM): < 5.00
pIC50 (second compound 0.316 µM): < 5.00
pIC50 (second compound 1 µM): < 5.00
pIC50 (second compound 3.16 µM): < 5.00
pIC50 (second compound 10 µM): < 5.00
SMILES: C#Cc1c(F)ccc2cc(O)cc(-c3ncc4c(N5CC6CCC(C5)N6)nc(OCC56CCCN5CC(F)C6)nc4c3F)c12 (stereo unspecified) + Cc1c(S(C)(=O)=O)c(-c2cc(F)cc(N3CCN(c4ccc(NS(=O)(=O)c5ccc(NC(CCN6CCC(C(=O)OCCCP(=O)(O)O)CC6)CSc6ccccc6)c(S(=O)(=O)C(F)(F)F)c5)cc4)CC3)c2)c(-c2ccc(Cl)cc2)n1C(C)C
viability, T/C (second compound 0.0316 µM, first compound 0.0316 µM): 117%
viability, T/C (second compound 0.0316 µM, first compound 0.1 µM): 88.2%
viability, T/C (second compound 0.0316 µM, first compound 0.316 µM): 89.7%
viability, T/C (second compound 0.0316 µM, first compound 1 µM): 89.5%
viability, T/C (second compound 0.0316 µM, first compound 3.16 µM): 81.6%
viability, T/C (second compound 0.0316 µM, first compound 10 µM): 83.9%
viability, T/C (second compound 0.1 µM, first compound 0.0316 µM): 60.5%
viability, T/C (second compound 0.1 µM, first compound 0.1 µM): 109%
viability, T/C (second compound 0.1 µM, first compound 0.316 µM): 105%
viability, T/C (second compound 0.1 µM, first compound 1 µM): 99.7%
viability, T/C (second compound 0.1 µM, first compound 3.16 µM): 87.1%
viability, T/C (second compound 0.1 µM, first compound 10 µM): 89.6%
viability, T/C (second compound 0.316 µM, first compound 0.0316 µM): 88.2%
viability, T/C (second compound 0.316 µM, first compound 0.1 µM): 88.3%
viability, T/C (second compound 0.316 µM, first compound 0.316 µM): 82.6%
viability, T/C (second compound 0.316 µM, first compound 1 µM): 77.3%
viability, T/C (second compound 0.316 µM, first compound 3.16 µM): 64.6%
viability, T/C (second compound 0.316 µM, first compound 10 µM): 56.9%
viability, T/C (second compound 1 µM, first compound 0.0316 µM): 84.4%
viability, T/C (second compound 1 µM, first compound 0.1 µM): 75.1%
viability, T/C (second compound 1 µM, first compound 0.316 µM): 84%
viability, T/C (second compound 1 µM, first compound 1 µM): 58.2%
viability, T/C (second compound 1 µM, first compound 3.16 µM): 78.7%
viability, T/C (second compound 1 µM, first compound 10 µM): 82.7%
viability, T/C (second compound 3.16 µM, first compound 0.0316 µM): 70.6%
viability, T/C (second compound 3.16 µM, first compound 0.1 µM): 79.9%
viability, T/C (second compound 3.16 µM, first compound 0.316 µM): 58.9%
viability, T/C (second compound 3.16 µM, first compound 1 µM): 57.3%
viability, T/C (second compound 3.16 µM, first compound 3.16 µM): 95.8%
viability, T/C (second compound 3.16 µM, first compound 10 µM): 67.8%
viability, T/C (second compound 10 µM, first compound 0.0316 µM): 62.9%
viability, T/C (second compound 10 µM, first compound 0.1 µM): 66.2%
viability, T/C (second compound 10 µM, first compound 0.316 µM): 65.9%
viability, T/C (second compound 10 µM, first compound 1 µM): 56.6%
viability, T/C (second compound 10 µM, first compound 3.16 µM): 60.1%
viability, T/C (second compound 10 µM, first compound 10 µM): 77.5%
